# Test system: Acinetobacter baumannii strains
# Assay: Antibiotic susceptibility test (CLSI disk diffusion test method, read per CLSI 2016); for antibiotic susceptibility S/I/R: key: ‘S’ means susceptible; ‘I’ means intermediate; ‘R’ means resistant; for susceptibility category (S/I/R): key: ‘S’ means susceptible; ‘I’ means intermediate; ‘R’ means resistant
# Format: cell-based
# Design: antibiotic susceptibility test value / susceptibility test value (number given before S/I/R) / antibiotic susceptibility value: unit not given here
substance,measurement,setting,value
colistin,antibiotic susceptibility value,host strain YMC16/01/R353,0.5
same,susceptibility category (S/I/R),host strain YMC16/01/R353,S
same,susceptibility test value (number given before S/I/R),host strain YMC16/01/R353,0.5
same,antibiotic susceptibility S/I/R,host strain YMC16/01/R380,S
same,antibiotic susceptibility value,host strain YMC16/01/R380,0.5
same,susceptibility category (S/I/R),host strain YMC16/01/R380,S
same,susceptibility test value (number given before S/I/R),host strain YMC16/01/R380,0.5
same,antibiotic susceptibility S/I/R,host strain YMC16/01/R397,S
same,antibiotic susceptibility value,host strain YMC16/01/R397,0.5
same,susceptibility category (S/I/R),host strain YMC16/01/R397,S
same,susceptibility test value (number given before S/I/R),host strain YMC16/01/R397,0.5
same,antibiotic susceptibility S/I/R,host strain YMC16/01/R405,S
same,antibiotic susceptibility value,host strain YMC16/01/R405,0.5
same,susceptibility category (S/I/R),host strain YMC16/01/R405,S
same,susceptibility test value (number given before S/I/R),host strain YMC16/01/R405,0.5
same,antibiotic susceptibility S/I/R,host strain YMC16/03/R4461,R
same,antibiotic susceptibility value,host strain YMC16/03/R4461,16
same,susceptibility category (S/I/R),host strain YMC16/03/R4461,R
same,susceptibility test value (number given before S/I/R),host strain YMC16/03/R4461,16
same,antibiotic susceptibility S/I/R,host strain YMC16/05/R2210,R
same,antibiotic susceptibility value,host strain YMC16/05/R2210,16
same,susceptibility category (S/I/R),host strain YMC16/05/R2210,R
same,susceptibility test value (number given before S/I/R),host strain YMC16/05/R2210,16
same,antibiotic susceptibility S/I/R,host strain YMC16/07/R2512,R
same,antibiotic susceptibility value,host strain YMC16/07/R2512,16
same,susceptibility category (S/I/R),host strain YMC16/07/R2512,R
same,susceptibility test value (number given before S/I/R),host strain YMC16/07/R2512,16
same,antibiotic susceptibility S/I/R,host strain YMC16/09/R2471,R
same,antibiotic susceptibility value,host strain YMC16/09/R2471,16
same,susceptibility category (S/I/R),host strain YMC16/09/R2471,R
same,susceptibility test value (number given before S/I/R),host strain YMC16/09/R2471,16
same,antibiotic susceptibility S/I/R,host strain YMC16/10/R2537,R
same,antibiotic susceptibility value,host strain YMC16/10/R2537,16
same,susceptibility category (S/I/R),host strain YMC16/10/R2537,R
same,susceptibility test value (number given before S/I/R),host strain YMC16/10/R2537,16
same,antibiotic susceptibility S/I/R,host strain YMC16/12/B11422,S
same,antibiotic susceptibility value,host strain YMC16/12/B11422,0.5
same,susceptibility category (S/I/R),host strain YMC16/12/B11422,S
same,susceptibility test value (number given before S/I/R),host strain YMC16/12/B11422,0.5
same,antibiotic susceptibility S/I/R,host strain YMC16/12/B11449,S
same,antibiotic susceptibility value,host strain YMC16/12/B11449,0.5
same,susceptibility category (S/I/R),host strain YMC16/12/B11449,S
same,susceptibility test value (number given before S/I/R),host strain YMC16/12/B11449,0.5
same,antibiotic susceptibility S/I/R,host strain YMC16/12/B13325,S
same,antibiotic susceptibility value,host strain YMC16/12/B13325,0.5
same,susceptibility category (S/I/R),host strain YMC16/12/B13325,S
same,susceptibility test value (number given before S/I/R),host strain YMC16/12/B13325,0.5
same,antibiotic susceptibility S/I/R,host strain YMC16/12/P503,R
same,antibiotic susceptibility value,host strain YMC16/12/P503,16
same,susceptibility category (S/I/R),host strain YMC16/12/P503,R
same,susceptibility test value (number given before S/I/R),host strain YMC16/12/P503,16
same,antibiotic susceptibility S/I/R,host strain YMC16/12/R4637,R
same,antibiotic susceptibility value,host strain YMC16/12/R4637,16
same,susceptibility category (S/I/R),host strain YMC16/12/R4637,R
same,susceptibility test value (number given before S/I/R),host strain YMC16/12/R4637,16
same,antibiotic susceptibility S/I/R,host strain YMC17/01/B8053,S
same,antibiotic susceptibility value,host strain YMC17/01/B8053,0.5
same,susceptibility category (S/I/R),host strain YMC17/01/B8053,S
same,susceptibility test value (number given before S/I/R),host strain YMC17/01/B8053,0.5
same,antibiotic susceptibility S/I/R,host strain YMC17/01/B10087,S
same,antibiotic susceptibility value,host strain YMC17/01/B10087,0.5
same,susceptibility category (S/I/R),host strain YMC17/01/B10087,S
same,susceptibility test value (number given before S/I/R),host strain YMC17/01/B10087,0.5
same,antibiotic susceptibility S/I/R,host strain YMC17/01/B12075,S
same,antibiotic susceptibility value,host strain YMC17/01/B12075,22
same,susceptibility category (S/I/R),host strain YMC17/01/B12075,S
same,susceptibility test value (number given before S/I/R),host strain YMC17/01/B12075,22
same,antibiotic susceptibility S/I/R,host strain YMC17/01/B13454,S
same,antibiotic susceptibility value,host strain YMC17/01/B13454,0.5
same,susceptibility category (S/I/R),host strain YMC17/01/B13454,S
same,susceptibility test value (number given before S/I/R),host strain YMC17/01/B13454,0.5
same,antibiotic susceptibility S/I/R,host strain YMC17/01/P518,S
same,antibiotic susceptibility value,host strain YMC17/01/P518,0.5
same,susceptibility category (S/I/R),host strain YMC17/01/P518,S
same,susceptibility test value (number given before S/I/R),host strain YMC17/01/P518,0.5
same,antibiotic susceptibility S/I/R,host strain YMC17/01/R2812,R
same,antibiotic susceptibility value,host strain YMC17/01/R2812,16
same,susceptibility category (S/I/R),host strain YMC17/01/R2812,R
same,susceptibility test value (number given before S/I/R),host strain YMC17/01/R2812,16
same,antibiotic susceptibility S/I/R,host strain YMC17/02/B14,S
same,antibiotic susceptibility value,host strain YMC17/02/B14,0.5
same,susceptibility category (S/I/R),host strain YMC17/02/B14,S
same,susceptibility test value (number given before S/I/R),host strain YMC17/02/B14,0.5
same,antibiotic susceptibility S/I/R,host strain YMC17/02/B87,S
same,antibiotic susceptibility value,host strain YMC17/02/B87,0.5
same,susceptibility category (S/I/R),host strain YMC17/02/B87,S
same,susceptibility test value (number given before S/I/R),host strain YMC17/02/B87,0.5
same,antibiotic susceptibility S/I/R,host strain YMC17/02/B721,S
same,antibiotic susceptibility value,host strain YMC17/02/B721,0.5
same,susceptibility category (S/I/R),host strain YMC17/02/B721,S
same,susceptibility test value (number given before S/I/R),host strain YMC17/02/B721,0.5
same,antibiotic susceptibility S/I/R,host strain YMC17/02/B4039,S
same,antibiotic susceptibility value,host strain YMC17/02/B4039,0.5
same,susceptibility category (S/I/R),host strain YMC17/02/B4039,S
same,susceptibility test value (number given before S/I/R),host strain YMC17/02/B4039,0.5
same,antibiotic susceptibility S/I/R,host strain YMC17/02/B4520,S
same,antibiotic susceptibility value,host strain YMC17/02/B4520,0.5
same,susceptibility category (S/I/R),host strain YMC17/02/B4520,S
same,susceptibility test value (number given before S/I/R),host strain YMC17/02/B4520,0.5
same,antibiotic susceptibility S/I/R,host strain YMC17/02/B4864,S
same,antibiotic susceptibility value,host strain YMC17/02/B4864,0.5
same,susceptibility category (S/I/R),host strain YMC17/02/B4864,S
same,susceptibility test value (number given before S/I/R),host strain YMC17/02/B4864,0.5
same,antibiotic susceptibility S/I/R,host strain YMC17/02/B8414,S
same,antibiotic susceptibility value,host strain YMC17/02/B8414,0.5
same,susceptibility category (S/I/R),host strain YMC17/02/B8414,S
same,susceptibility test value (number given before S/I/R),host strain YMC17/02/B8414,0.5
same,antibiotic susceptibility S/I/R,host strain YMC17/02/P523,S
same,antibiotic susceptibility value,host strain YMC17/02/P523,0.5
same,susceptibility category (S/I/R),host strain YMC17/02/P523,S
same,susceptibility test value (number given before S/I/R),host strain YMC17/02/P523,0.5
same,antibiotic susceptibility S/I/R,host strain YMC17/02/R541,R
same,antibiotic susceptibility value,host strain YMC17/02/R541,16
same,susceptibility category (S/I/R),host strain YMC17/02/R541,R
same,susceptibility test value (number given before S/I/R),host strain YMC17/02/R541,16
same,antibiotic susceptibility S/I/R,host strain YMC17/02/R2392,R
same,antibiotic susceptibility value,host strain YMC17/02/R2392,16
same,susceptibility category (S/I/R),host strain YMC17/02/R2392,R
same,susceptibility test value (number given before S/I/R),host strain YMC17/02/R2392,4
same,antibiotic susceptibility S/I/R,host strain YMC17/03/B4730,S
same,antibiotic susceptibility value,host strain YMC17/03/B4730,0.5
same,susceptibility category (S/I/R),host strain YMC17/03/B4730,S
same,susceptibility test value (number given before S/I/R),host strain YMC17/03/B4730,0.5
same,antibiotic susceptibility S/I/R,host strain YMC17/03/B5000,S
same,antibiotic susceptibility value,host strain YMC17/03/B5000,0.5
same,susceptibility category (S/I/R),host strain YMC17/03/B5000,S
same,susceptibility test value (number given before S/I/R),host strain YMC17/03/B5000,0.5
same,antibiotic susceptibility S/I/R,host strain YMC17/03/P971,R
same,antibiotic susceptibility value,host strain YMC17/03/P971,16
same,susceptibility category (S/I/R),host strain YMC17/03/P971,R
same,susceptibility test value (number given before S/I/R),host strain YMC17/03/P971,16
same,antibiotic susceptibility S/I/R,host strain YMC17/03/R348,R
same,antibiotic susceptibility value,host strain YMC17/03/R348,16
same,susceptibility category (S/I/R),host strain YMC17/03/R348,R
same,susceptibility test value (number given before S/I/R),host strain YMC17/03/R348,4
same,antibiotic susceptibility S/I/R,host strain YMC17/03/R585,R
same,antibiotic susceptibility value,host strain YMC17/03/R585,16
same,susceptibility category (S/I/R),host strain YMC17/03/R585,R
same,susceptibility test value (number given before S/I/R),host strain YMC17/03/R585,16
same,antibiotic susceptibility S/I/R,host strain YMC17/03/R1888,R
same,antibiotic susceptibility value,host strain YMC17/03/R1888,16
same,susceptibility category (S/I/R),host strain YMC17/03/R1888,R
same,susceptibility test value (number given before S/I/R),host strain YMC17/03/R1888,16
same,antibiotic susceptibility S/I/R,host strain YMC17/03/R3279,R
same,antibiotic susceptibility value,host strain YMC17/03/R3279,16
same,susceptibility category (S/I/R),host strain YMC17/03/R3279,R
same,susceptibility test value (number given before S/I/R),host strain YMC17/03/R3279,16
same,antibiotic susceptibility S/I/R,host strain YMC17/03/R4077,S
same,antibiotic susceptibility value,host strain YMC17/03/R4077,0.5
same,susceptibility category (S/I/R),host strain YMC17/03/R4077,S
same,susceptibility test value (number given before S/I/R),host strain YMC17/03/R4077,0.5
same,antibiotic susceptibility S/I/R,host strain YMC17/03/R4607,S
same,antibiotic susceptibility value,host strain YMC17/03/R4607,0.5
same,susceptibility category (S/I/R),host strain YMC17/03/R4607,S
same,susceptibility test value (number given before S/I/R),host strain YMC17/03/R4607,0.5
same,antibiotic susceptibility S/I/R,host strain YMC17/04/R488,R
same,antibiotic susceptibility value,host strain YMC17/04/R488,8
same,susceptibility category (S/I/R),host strain YMC17/04/R488,R
same,susceptibility test value (number given before S/I/R),host strain YMC17/04/R488,8
same,antibiotic susceptibility S/I/R,host strain YMC17/04/R640,R
same,antibiotic susceptibility value,host strain YMC17/04/R640,8
same,susceptibility category (S/I/R),host strain YMC17/04/R640,R
same,susceptibility test value (number given before S/I/R),host strain YMC17/04/R640,8
same,antibiotic susceptibility S/I/R,host strain YMC/17/05/R1095,R
same,antibiotic susceptibility value,host strain YMC/17/05/R1095,16
same,susceptibility category (S/I/R),host strain YMC/17/05/R1095,R
same,susceptibility test value (number given before S/I/R),host strain YMC/17/05/R1095,16

# Reference: US20240000872A1, “NOVEL BACTERIOPHAGE THAT LYSES ACINETOBACTER GENUS BACTERIA HAVING RESISTANCE TO ANTIBIOTICS” (priority 2020, published 2024)
